Measurements from patent US11384078B2, “5,6-fused-bicyclic compounds and compositions for the treatment of parasitic diseases” (NOVARTIS AG, priority 2017, dated 2022).

Columns and labels:
Assay type in all cases: cell-based
[1] = tested on: Trypanosoma cruzi amastigotes cultured in 3T3 fibroblast cells; assay: Assay for growth inhibition of kinetoplastid parasite Trypanosoma cruzi (beta-galactosidase Tulahuen strain, CPRG readout); details: Trypanosoma cruzi, Fibroblast, T. cruzi amastigotes in 3T3 fibroblast cells; read-out: Buckner infectious T. cruzi EC50
Summary of the method: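 3T3 fibroblasts (1,000 cells/well) plated overnight, treated with compound in DMSO, then infected with 10,000 Lac-Z-expressing Tulahuen trypomastigotes. After 6 days, 0.6 mM CPRG with 0.6% NP-40 added for 2 h at room temperature; absorbance gives relative intracellular amastigote numbers. Benznidazole and nifurtimox serve as positive controls.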

[2] = tested on: L. donovani HU3 strain in mouse peritoneal macrophages; assay: Assay for inhibition of parasitemia of Leishmania donovani in mouse macrophages (SYBR Green nuclei count, high-content imaging); details: Leishmania donovani, Peritoneal macrophage, L. donovani in mouse peritoneal macrophages; read-out: L. donovani in Mouse Macrophages EC50
Summary of the method: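 Parasite numbers were counted from SYBR Green-stained nuclei imaged by high-content microscopy after paraformaldehyde fixation and Triton permeabilization. Before this, compound was applied for 5 days at 37° C to BALB/c peritoneal macrophages (2×10^4/well) that had been exposed 24 h to 4×10^5 L. donovani HU3 amastigotes harvested from infected mouse spleens.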

[3] = tested on: Trypanosoma brucei brucei (Lister 427) strain; assay: Assay for growth inhibition against Trypanosoma brucei brucei (Cell TiterGlo ATP luminescence); details: Trypanosoma brucei, T. brucei brucei (Lister 427); read-out: T. Brucei (HAT) EC50
Summary of the method: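 Growth read-out is cellular ATP by CellTiter-Glo luminescence, measured 30 min after reagent addition, following 2-day incubation at 37 °C in CO2. Parasites (10,000/mL, HMI-9 plus 10% FBS and 10% serum plus) faced 10 threefold dilutions in duplicate; IC50 taken as 50% growth inhibition versus untreated.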

[4] = tested on: Leishmania donovani axenic amastigote; assay: In vitro assay for growth inhibition of Leishmania donovani axenic amastigote (Cell TiterGlo luminescence); details: Leishmania donovani, L. donovani axenic amastigotes in vitro; read-out: L. donovani amastigotes EC50
Summary of the method: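 Compound-treated wells received 9600 axenic amastigotes in RPMI 1640-based medium at pH 5.5 (37 °C, 5% CO2). Growth measured as ATP luminescence (CellTiter-Glo) after 2-day incubation; DMSO and reference compounds served as controls.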

Structure (SMILES)	EC50 [1]	EC50 [2]	EC50 [3]	EC50 [4]
O=C(Nc1ccc(F)c(-n2cc3cc(N4CC5(CCC5)C4)cnc3n2)c1)N1CC(F)C1 [Compound 243, N-[3-(5-{2-azaspiro[3.3]heptan-2-yl}-2H-pyrazolo[3,4-b]pyridin-2-yl)-4-fluorophenyl}-3-fluoroazetidine-1-carboxamide]	82 nM	65 nM	5 nM	2100 nM
O=C(Nc1ccc(F)c(-n2cc3cc(N4CCC5(CCOCC5)C4)cnc3n2)c1)N1CC(F)C1 [Compound 244, 3-fluoro-N-[4-fluoro-3-(5-{8-oxa-2-azaspiro[4.5]decan-2-yl}-2H-pyrazolo[3,4-b]pyridin-2-yl)phenyl}azetidine-1-carboxamide]	14 nM	21 nM	5 nM	550 nM
O=C1CCC2(CN(c3cnc4nn(-c5cc(NC(=O)N6CC(F)C6)ccc5F)cc4c3)C2)N1 [Compound 245, 3-fluoro-N-[4-fluoro-3-(5-{6-oxo-2,5-diazaspiro[3.4]octan-2-yl}-2H-pyrazolo[3,4-b]pyridin-2-yl)phenyl}azetidine-1-carboxamide]	951 nM	1490 nM	62 nM	311 nM
O=C(Nc1ccc(F)c(-n2cc3cc(N4CC5(CCOC5)C4)cnc3n2)c1)N1CC2(CCOC2)C1 [Compound 246, N-[4-fluoro-3-(5-{6-oxa-2-azaspiro[3.4]octan-2-yl}-2H-pyrazolo[3,4-b]pyridin-2-yl)phenyl}-6-oxa-2-azaspiro[3.4]octane-2-carboxamide]	2840 nM	379 nM	396 nM	535 nM
CC(C)(C)OC(=O)N1CCCC1c1cnc2nn(-c3cc(NC(=O)N4CCC4)ccc3F)cc2c1 (stereo not drawn) [Compound 247, tert-butyl 2-(2-{5-[(azetidine-1-carbonyl)amino]-2-fluorophenyl}-2H-pyrazolo[3,4-b]pyridin-5-yl)pyrrolidine-1-carboxylate]	14 nM	23 nM	5 nM	40 nM
O=C(Nc1ccc(F)c(-n2cc3cc(N4CCC5(CC4)COC5)cnc3n2)c1)N1CC(F)C1 [Compound 248, 3-fluoro-N-[4-fluoro-3-(5-{2-oxa-7-azaspiro[3.5]nonan-7-yl}-2H-pyrazolo[3,4-b]pyridin-2-yl)phenyl]azetidine-1-carboxamide]	11 nM	8 nM	5 nM	117 nM
O=C(Nc1ccc(F)c(-n2cc3cc(NC4CC4)cnc3n2)c1)N1CC(F)C1 [Compound 249, N-{3-[5-(cyclopropylamino)-2H-pyrazolo[3,4-b]pyridin-2-yl]-4-fluorophenyl}-3-fluoroazetidine-1-carboxamide]	110 nM	125 nM	5 nM	864 nM
O=C(Nc1ccc(F)c(-n2cc3cc(N4CCN(CC(F)(F)F)CC4)cnc3n2)c1)N1CCC1 [Compound 250, N-(4-fluoro-3-{5-[4-(2,2,2-trifluoroethyl)piperazin-1-yl]-2H-pyrazolo[3,4-b]pyridin-2-yl}phenyl)azetidine-1-carboxamide]	1 nM	10 nM	5 nM	43 nM
O=C(Nc1ccc(F)c(-n2cc3cc(Br)cnc3n2)c1)N1CC2(CC2)C1 [Compound 254, N-(3-(5-bromo-2H-pyrazolo[3,4-b]pyridin-2-yl)-4-fluorophenyl)-5-azaspiro[2.3]hexane-5-carboxamide]	50 nM	673 nM	259 nM	91 nM
CC1(C)CN(c2cnc3nn(-c4cc(NC(=O)N5CC(F)C5)ccc4F)cc3c2)C1 [Compound 255, N-{3-[5-(3,3-dimethylazetidin-1-yl)-2H-pyrazolo[3,4-b]pyridin-2-yl]-4-fluorophenyl}-3-fluoroazetidine-1-carboxamide]	15 nM	28 nM	5 nM	42 nM
O=C(Nc1ccc(F)c(-n2cc3cc(N4CC5(CC5)C4)cnc3n2)c1)N1CCC1 [Compound 257, N-(3-(5-(5-azaspiro[2.3]hexan-5-yl)-2H-pyrazolo[3,4-b]pyridin-2-yl)-4-fluorophenyl)azetidine-1-carboxamide]	2 nM	7 nM	4 nM	14 nM
O=C(Nc1ccc(F)c(-n2cc3cc(N4CC5(CC5)C4)cnc3n2)c1)N1CC(F)(F)C1 [Compound 258, N-[3-(5-{5-azaspiro[2.3]hexan-5-yl}-2H-pyrazolo[3,4-b]pyridin-2-yl)-4-fluorophenyl}-3,3-difluoroazetidine-1-carboxamide]	12 nM	39 nM	28 nM	23 nM
O=C(Nc1ccc(F)c(-n2cc3cc(N4CC5(CC5)C4)cnc3n2)c1)N1CC[C@@H](F)C1 [Compound 259, (3R)-N-[3-(5-{5-azaspiro[2.3]hexan-5-yl}-2H-pyrazolo[3,4-b]pyridin-2-yl)-4-fluorophenyl}-3-fluoropyrrolidine-1-carboxamide]	3 nM	16 nM	4 nM	12 nM
CN(C)c1cnc2nn(-c3cc(NC(=O)N4CC5(CC5)C4)ccc3F)cc2c1 [Compound 260, N-{3-[5-(dimethylamino)-2H-pyrazolo[3,4-b]pyridin-2-yl]-4-fluorophenyl}-5-azaspiro[2.3]hexane-5-carboxamide]	49 nM	224 nM	43 nM	221 nM
O=C(Nc1ccc(F)c(-n2cc3cc(N4C5COCC4C5)cnc3n2)c1)N1CC(F)C1 [Compound 263, 3-fluoro-N-[4-fluoro-3-(5-{3-oxa-6-azabicyclo[3.1.1]heptan-6-yl}-2H-pyrazolo[3,4-b]pyridin-2-yl)phenyl]azetidine-1-carboxamide]	45 nM	68 nM	10 nM	12 nM
O=C(Nc1ccc(F)c(-n2cc3cc(C4CCN4)cnc3n2)c1)N1CC(F)C1 (stereo not drawn) [Compound 264, N-{3-[5-(azetidin-2-yl)-2H-pyrazolo[3,4-b]pyridin-2-yl]-4-fluorophenyl}-3-fluoroazetidine-1-carboxamide]	480 nM	13700 nM	384 nM	357 nM
O=C(Nc1ccc(F)c(-n2cc3cc(N4CC(C(F)(F)F)C4)cnc3n2)c1)N1CC(F)C1 [Compound 265, 3-fluoro-N-(4-fluoro-3-(5-(3-(trifluoromethyl)azetidin-1-yl)-2H-pyrazolo[3,4-b]pyridin-2-yl)phenyl)azetidine-1-carboxamide]	2 nM	4 nM	1 nM	3 nM
N#CC1CN(c2cnc3nn(-c4cc(NC(=O)N5CC(F)C5)ccc4F)cc3c2)C1 [Compound 266, N-{3-[5-(3-cyanoazetidin-1-yl)-2H-pyrazolo[3,4-b]pyridin-2-yl]-4-fluorophenyl}-3-fluoroazetidine-1-carboxamide]	65 nM	29 nM	5 nM	8 nM
CC(=O)N1CCC1c1cnc2nn(-c3cc(NC(=O)N4CC(F)C4)ccc3F)cc2c1 (stereo not drawn) [Compound 267, N-(3-(5-(1-acetylazetidin-2-yl)-2H-pyrazolo[3,4-b]pyridin-2-yl)-4-fluorophenyl)-3-fluoroazetidine-1-carboxamide]	9400 nM	13800 nM	81 nM	1710 nM
O=C(Nc1ccc(F)c(-n2cc3cc(N4CCNCC4)cnc3n2)c1)N1CC(F)C1 [Compound 270, 3-fluoro-N-{4-fluoro-3-[5-(piperazin-1-yl)-2H-pyrazolo[3,4-b]pyridin-2-yl]phenyl}azetidine-1-carboxamide]	1700 nM	2170 nM	79 nM	233 nM
O=C(Nc1ccc(F)c(-n2cc3cc(N4CC(C(F)(F)F)C4)cnc3n2)c1)N1CCC1 [Compound 274]	1 nM	3 nM	1 nM	2 nM
O=C(Nc1ccc(F)c(-n2cc3cc(N4CC(C(F)(F)F)C4)cnc3n2)c1)N1CC[C@@H](F)C1 [Compound 275]	1 nM	3 nM	1 nM	3 nM
O=C(Nc1ccc(F)c(-n2cc3cc(Cl)cnc3n2)c1)N1CC(F)C1 [Compound 276, N-(3-{5-chloro-2H-pyrazolo[3,4-b]pyridin-2-yl}-4-fluorophenyl)-3-fluoroazetidine-1-carboxamide]	21 nM	100 nM	33 nM	29 nM
Cc1nc(CO)c(C(=O)Nc2ccc(F)c(-n3cc4cc(-c5ncccc5C)cnc4n3)c2)o1 [Compound 277, N-(4-fluoro-3-(5-(3-methylpyridin-2-yl)-2H-pyrazolo[3,4-b]pyridin-2-yl)phenyl)-4-(hydroxymethyl)-2-methyloxazole-5-carboxamide]	144 nM	138 nM	82 nM	40 nM
